Source: the supplement of paper PMC10307832

Legend:
Experiment in all cases: relative viability (nuclei count vs DMSO), 5 days (fraction); higher = more cells survive
[1] = compound: CC1CC(=O)N(C2=CN=C(N=C2N1C3CCCC3)NC4=C(C=C(C=C4)C(=O)NC5CCN(CC5)C)OC)C [NPK76-II-72-1] + Nc1nc2[nH]cc(CCc3ccc(C(=O)N[C@@H](CCC(=O)O)C(=O)O)cc3)c2c(=O)[nH]1 [Pemetrexed] (partner 0.2 µM)
Procedure, shortened: (§1)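 Lung cancer cell lines in 1536-well plates got either a single drug or a fixed anchor-drug dose together with five library-drug doses (not always all listed) in √10 steps, by pin tool, on the day after seeding. Nuclei were counted after 5 days, and relative viability is the treated-to-vehicle ratio of nuclei counts. Values are medians of duplicate plates.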

[2] = compound: CC1CC(=O)N(C2=CN=C(N=C2N1C3CCCC3)NC4=C(C=C(C=C4)C(=O)NC5CCN(CC5)C)OC)C [NPK76-II-72-1] + CS(=O)(=O)CCNCc1ccc(-c2ccc3ncnc(Nc4ccc(OCc5cccc(F)c5)c(Cl)c4)c3c2)o1 [Lapatinib] (partner 2 µM)
Procedure, shortened: as §1

[3] = compound: CC1CC(=O)N(C2=CN=C(N=C2N1C3CCCC3)NC4=C(C=C(C=C4)C(=O)NC5CCN(CC5)C)OC)C [NPK76-II-72-1] + O=C(CCCCCCC(=O)Nc1ccccc1)NO [Vorinostat] (partner 1 µM)
Procedure, shortened: as §1

NPK76-II-72-1 + OSI-027 = compound: CC1CC(=O)N(C2=CN=C(N=C2N1C3CCCC3)NC4=C(C=C(C=C4)C(=O)NC5CCN(CC5)C)OC)C [NPK76-II-72-1] + COc1cccc2cc(-c3nc([C@H]4CC[C@H](C(=O)O)CC4)n4ncnc(N)c34)[nH]c12 [OSI-027] (partner 0.5 µM)
Procedure, shortened: as §1

## UMC-11
[1]; first compound 0.01 µM
  relative viability: 0.79
[1]; first compound 0.03162 µM
  relative viability: 0.869
[1]; first compound 0.1 µM
  relative viability: 0.768
[1]; first compound 0.3162 µM
  relative viability: 0.728
[1]; first compound 1 µM
  relative viability: 0.697
[2]; first compound 0.01 µM
  relative viability: 0.923
[2]; first compound 0.03162 µM
  relative viability: 1.07
[2]; first compound 0.1 µM
  relative viability: 1.08
[2]; first compound 0.3162 µM
  relative viability: 0.782
[2]; first compound 1 µM
  relative viability: 1.05
[3]; first compound 0.01 µM
  relative viability: 0.358
[3]; first compound 0.03162 µM
  relative viability: 0.365
[3]; first compound 0.1 µM
  relative viability: 0.334
[3]; first compound 0.3162 µM
  relative viability: 0.392
[3]; first compound 1 µM
  relative viability: 0.309
NPK76-II-72-1 + OSI-027; first compound 0.01 µM
  relative viability: 0.435
NPK76-II-72-1 + OSI-027; first compound 0.03162 µM
  relative viability: 0.424
NPK76-II-72-1 + OSI-027; first compound 0.1 µM
  relative viability: 0.521
NPK76-II-72-1 + OSI-027; first compound 1 µM
  relative viability: 0.47
